Patent US20250381242A1 (INVAIO SCIENCES, INC., priority 2024, published 2025)
No end group written: not given here.

Legend:
[1] = tested on: A. tumefaciens; settings: 24 h, 10 μM
[2] = tested on: L. crescens; settings: 10 μM
[3] = tested on: E. amylovora; settings: 24 h, 10 μM
[4] = tested on: X. citri; assay: Bacterial growth inhibition by OD600 absorbance, X. citri; format: cell-based, X. citri subsp. citri (ATCC 49118); settings: peptide 10 μM, 24 hours at 30° C., OD 600 nm
[5] = tested on: E. coli; assay: Bacterial growth inhibition by OD600 absorbance, E. coli; format: cell-based, E. coli (DH5-alpha); settings: peptide 10 μM, 24 hours at 37° C., OD 600 nm
Method in brief: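 Percent inhibition was calculated from initial and 24 h OD600 readings against DMSO (0.1%) and antibiotic controls. Cultures received 10 μM peptide and were incubated at 30° C. (X. citri) or 37° C. (E. coli).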

Sequence | growth inhibition, A. tumefaciens [1] [%] | growth inhibition, L. crescens [2] [%] | growth inhibition, E. amylovora [3] [%] | growth inhibition, X. citri [4] [%] | growth inhibition, E. coli [5] [%]
WKKIWKKIWKPGIKKWIKKWIK [compound 24] | 97.97 | <90 | 98.38 | 99.69 | 100.00
KWKSFIKNLEKVLKKGPILANLVSIV [compound 23] | 100.00 | 99.03 | 100.00 | 100.00 | 100.00
GIKIAKKAITIAKKIAKIYW [compound 69] | 100.00 | <90 | 100.00 | 100.00 | 93.16
GLWSKIKTAGKSVAKAAAKAAVKAVTNAV [compound 28] | 100.00 | <90 | 100.00 | 100.00 | 100.00
KILKRLAAKIKKIL [compound 113] | <90 | <90 | <90 | 100.00 | <90
AWKETIRKYLKNEIKKKWRKAVIAW [compound 14] | 100.00 | <90 | 100.00 | 100.00 | 100.00
GKLTKDKLKRGAKKALNVASKVAPIVAAGASIAR [compound 10] | 98.37 | <90 | 100.00 | 100.00 | <90
AFWKKFFKKFFKSAKKFG [compound 67] | 99.57 | <90 | 100.00 | 100.00 | 100.00
RFRRLFRIRVRVLKKI [compound 72] | 100.00 | <90 | 100.00 | 100.00 | <90
FFRNLWKGAKAAFRAGHAAWRA [compound 41] | 100.00 | <90 | 100.00 | 100.00 | <90
KKLIKVFAKGFKKAKKLFKGIG [compound 52] | 100.00 | <90 | 100.00 | 100.00 | <90
GIGKFLHSAKKFGKAFVGEIMNSKKKKKKKKKK [compound 5] | 98.68 | <90 | <90 | 100.00 | <90
IWSFLIKAATKLLPSLFGGGKKDS [compound 39] | <90 | 92.47 | <90 | 100.00 | 100.00
KWLKKWLKKWLK [compound 103] | 100.00 | <90 | 100.00 | <90 | 98.34
KKIGKKAAKKVIVKAIQAIV [compound 73] | <90 | <90 | 99.94 | <90 | <90
GWWRRTVDKVRNAGRKVAGFASKACGALGH [compound 13] | 100.00 | 100.00 | 100.00 | 100.00 | 100.00
FKRLEKLFKKIWNWK [compound 79] | 100.00 | <90 | 100.00 | 100.00 | <90
WFGHLYRGITKVVKHVHGLLKG [compound 40] | 100.00 | <90 | 100.00 | 100.00 | 100.00
GIGKLFLHAAKKFAKAFVAEKMNS [compound 36] | 100.00 | <90 | 100.00 | 100.00 | <90

Sequence | growth inhibition, A. tumefaciens [1] [%] | growth inhibition, L. crescens [2] [%] | growth inhibition, E. amylovora [3] [%] | growth inhibition, X. citri [4] [%] | growth inhibition, E. coli [5] [%]
KFFKRLLKSVRRAVKKFRKKPRLIGLSTLL [compound 8] | 99.88 | <90 | 100.00 | 100.00 | 100.00
GIMSSLMKKLKKIIAK [compound 99] | 98.76 | <90 | 100.00 | <90 | <90
WLSKTAKKLWLSKTAKKLWLSKTAKKL [compound 15] | <90 | <90 | <90 | 96.25 | <90
KKFLHSAKKWLKAFVKLFKNW [compound 33] | 100.00 | 96.12 | <90 | 100.00 | 100.00
FRIRVRVKWKLFKKI [compound 81] | 100.00 | <90 | 100.00 | <90 | 100.00
GILKTIKSIASKLKRKAK [compound 85] | <90 | <90 | 99.65 | <90 | <90
GMWKKILGKLIR [compound 134] | 100.00 | <90 | 100.00 | <90 | <90
GYNYAKKLANLAKKFANALW [compound 66] | 99.99 | <90 | 97.23 | 100.00 | <90
GLWSKIKKAAKTAGKAALGFVNKMV [compound 35] | 100.00 | <90 | 100.00 | 100.00 | 100.00
GILKTIKSIASKVANTVQKLKRKAKNAVA [compound 20] | 100.00 | <90 | 100.00 | 100.00 | 99.03
KNWKGIAGMAKKLLGKNWKLM [compound 59] | 99.61 | <90 | 100.00 | 100.00 | <90
GANALKKYFTILKKFFKLAW [compound 61] | <90 | <90 | <90 | <90 | 100.00
IKKILSKIKKLLK [compound 122] | 97.95 | <90 | 93.74 | 100.00 | <90
GLLKKIAKKAKKALKKLGY [compound 74] | 100.00 | <90 | 100.00 | 100.00 | <90
GMWSKLLGHLLR [compound 138] | 100.00 | <90 | 100.00 | <90 | <90
LRFLKKALKKLF [compound 129] | 98.87 | <90 | 93.29 | <90 | <90
LHRLVKLVAALLRGYASKVDTH [compound 53] | 100.00 | <90 | 100.00 | 100.00 | 100.00
GWKKWLRKGAKHLGQAAIKGLAS [compound 46] | 100.00 | <90 | 100.00 | 100.00 | 100.00
SWKSMAKKLKEYMEKLKQRA [compound 50] | 99.59 | <90 | 100.00 | <90 | <90
